ChEMBL document CHEMBL1201862, “PubChem BioAssay data set” (2004)
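Cells were grown in 96-well plates and exposed to each compound for 48 hours at five concentrations; endpoints were interpolated linearly between bracketing concentrations, or set to the highest concentration if not reached. GI50: concentration for 50% inhibition of growth.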 Calls of active or inactive are those of the source. Cut-off read from the data, not from the text of the source: active = GI50 up to about 1.1 µM and inactive = higher.

Key:
Assay in all cases: NCI tumour cell line growth inhibition, 48 h
[1] = tested on: SK-MEL-28
[2] = tested on: SN12C
[3] = tested on: K562
[4] = tested on: UO-31
[5] = tested on: UACC-62
[6] = tested on: MOLT-4
[7] = tested on: UACC-257
[8] = tested on: NCI/ADR-RES
[9] = tested on: HCT-15
[10] = tested on: M14
[11] = tested on: OVCAR-4
[12] = tested on: KM12
[13] = tested on: SK-OV-3
[14] = tested on: 786-0
[15] = tested on: SNB-19
[16] = tested on: COLO 205
[17] = tested on: HOP-92
[18] = tested on: SK-MEL-2
[19] = tested on: MDA-MB-435

Structure (SMILES)	GI50 [1]	GI50 [2]	GI50 [3]	GI50 [4]	GI50 [5]	GI50 [6]	GI50 [7]	GI50 [8]	GI50 [9]	GI50 [10]	GI50 [11]	GI50 [12]	GI50 [13]	GI50 [14]	GI50 [15]	GI50 [16]	GI50 [17]	GI50 [18]	GI50 [19]
CC1=C(N2CC2)C(=O)C(CO)=C(N2CC2)C1=O	0.0711 µM (active)	< 0.0102 µM (active)	0.0186 µM (active)	0.0101 µM (active)	0.022 µM (active)	0.0129 µM (active)	0.0923 µM (active)	0.0106 µM (active)	0.0151 µM	0.0111 µM (active)	0.103 µM (active)	0.0227 µM (active)	0.0516 µM (active)	< 0.0321 µM (active)	0.0927 µM (active)				
CCS(=O)(=O)Nc1ccc(Nc2c3ccccc3nc3ccccc23)c(OC)c1	3.03 µM (inactive)	0.166 µM (active)	0.681 µM (active)	0.397 µM (active)	0.416 µM (active)	< 0.01 µM (active)	2.6 µM (inactive)	5 µM (inactive)	0.682 µM		4.19 µM (inactive)	1.75 µM (inactive)	0.203 µM (active)		0.273 µM (active)	2.22 µM (inactive)	0.697 µM (active)	5.37 µM (inactive)	
Cc1ccc2c(c1)SC1=Nc3sc4cc(C)ccc4[n+]3CN12	13 µM (inactive)	7.16 µM (inactive)		35.6 µM (inactive)	3.4 µM (inactive)	< 0.01 µM (active)	2.18 µM (inactive)	34.4 µM (inactive)	40.5 µM	3.59 µM (inactive)	2.51 µM (inactive)		31.8 µM (inactive)	32.2 µM (inactive)	3.24 µM (inactive)	2.7 µM (inactive)	2.97 µM (inactive)	3.51 µM (inactive)	4.22 µM (inactive)
C[n+]1ccc2[nH]c3ccccc3c2c1	> 100 µM (inactive)	> 100 µM (inactive)	> 100 µM (inactive)	> 100 µM (inactive)	> 100 µM (inactive)	38.8 µM (inactive)	> 100 µM (inactive)		> 100 µM	> 100 µM (inactive)	> 100 µM (inactive)	77.1 µM (inactive)	> 100 µM (inactive)	> 100 µM (inactive)	> 100 µM (inactive)	> 100 µM (inactive)	> 100 µM (inactive)	> 100 µM (inactive)	
CCOc1ccccc1NC(=O)CC1Sc2ccccc2NC1=O (stereo not given)	> 100 µM (inactive)	> 100 µM (inactive)	38 µM (inactive)	61.1 µM (inactive)	36.2 µM (inactive)	41.5 µM (inactive)	> 100 µM (inactive)		53 µM	45.8 µM (inactive)	68.9 µM (inactive)	38.1 µM (inactive)	> 100 µM (inactive)	> 100 µM (inactive)	> 100 µM (inactive)	33.3 µM (inactive)	18.2 µM (inactive)	45.8 µM (inactive)	
Cc1cc(Cl)ccc1NC(=O)CC1SC(Nc2ccccc2Cl)=NC1=O (stereo not given)	66.2 µM (inactive)	33.8 µM (inactive)	37.8 µM (inactive)	35.5 µM (inactive)	30.3 µM (inactive)	30.2 µM (inactive)	50.2 µM (inactive)		39.9 µM	49.2 µM (inactive)	41.3 µM (inactive)	33.3 µM (inactive)	49.3 µM (inactive)	53.8 µM (inactive)	32.4 µM (inactive)	19.2 µM (inactive)	48.9 µM (inactive)	48.4 µM (inactive)	
CCC1=C(C)/C(=C/c2[nH]c(CBr)c(CC)c2C)N=C1CBr	15.6 µM (inactive)	10 µM (inactive)	8.22 µM (inactive)	3.52 µM (inactive)	6.05 µM (inactive)	5.81 µM (inactive)	> 10 µM (inactive)		8.71 µM	16.5 µM (inactive)	13 µM (inactive)	11.6 µM (inactive)	19 µM (inactive)	17 µM (inactive)	16.4 µM (inactive)	11.3 µM (inactive)	7.46 µM (inactive)	22.2 µM (inactive)	
COc1cc2c(cc1OC)C1C3CCCCC3CCN1CC2 (stereo not given)	> 100 µM (inactive)	62.7 µM (inactive)	> 100 µM (inactive)		> 100 µM (inactive)	> 100 µM (inactive)	> 100 µM (inactive)	> 100 µM (inactive)	> 100 µM		> 100 µM (inactive)	> 100 µM (inactive)	> 100 µM (inactive)	88.5 µM (inactive)	> 100 µM (inactive)	67 µM (inactive)	> 100 µM (inactive)	> 100 µM (inactive)	> 100 µM (inactive)
Cc1cc(/N=N/c2ccc(/N=N/c3c(O)c(S(=O)(=O)O)cc4cc(S(=O)(=O)O)ccc34)cc2C)ccc1/N=N/c1ccc2cc(S(=O)(=O)O)cc(S(=O)(=O)O)c2c1	> 100 µM (inactive)	> 100 µM (inactive)	> 100 µM (inactive)	> 100 µM (inactive)	> 100 µM (inactive)	> 100 µM (inactive)	> 100 µM (inactive)	> 100 µM (inactive)	> 100 µM		> 100 µM (inactive)	> 72.4 µM (inactive)	> 47 µM (inactive)		> 100 µM (inactive)	> 100 µM (inactive)	> 68.5 µM (inactive)	> 100 µM (inactive)	
C/C(=N\Nc1nnc(S)n1N)c1c(O)cc(C)oc1=O	> 100 µM (inactive)	> 100 µM (inactive)	> 100 µM (inactive)	> 100 µM (inactive)	> 100 µM (inactive)	> 100 µM (inactive)	> 100 µM (inactive)		> 100 µM	> 100 µM (inactive)	99.3 µM (inactive)	> 100 µM (inactive)	> 100 µM (inactive)	> 100 µM (inactive)	> 100 µM (inactive)		> 100 µM (inactive)	> 100 µM (inactive)	
CC1=NN2C(c3ccc([N+](=O)[O-])cc3)=CSC2=NC(C)(C)C1	> 100 µM (inactive)	> 100 µM (inactive)	> 100 µM (inactive)	88.1 µM (inactive)	> 100 µM (inactive)	> 100 µM (inactive)	> 100 µM (inactive)		> 100 µM	> 100 µM (inactive)	> 100 µM (inactive)	> 100 µM (inactive)	> 100 µM (inactive)	> 100 µM (inactive)	> 100 µM (inactive)	> 100 µM (inactive)	79.6 µM (inactive)	> 100 µM (inactive)	
Cc1c(/C=N/NC(=S)Nc2ccccc2)c(=O)n(-c2ccccc2)n1C	> 100 µM (inactive)		31.2 µM (inactive)	57.5 µM (inactive)	> 100 µM (inactive)	> 100 µM (inactive)	> 100 µM (inactive)	22.1 µM (inactive)	47.5 µM	> 100 µM (inactive)	> 100 µM (inactive)	> 100 µM (inactive)	> 100 µM (inactive)	> 100 µM (inactive)	> 100 µM (inactive)	> 100 µM (inactive)	> 100 µM (inactive)	> 100 µM (inactive)	> 100 µM (inactive)
O=Cc1cc(O)c(O)c(/C=N/n2c3ccccc3c3ccccc32)c1	12.9 µM (inactive)	4.56 µM (inactive)	4.11 µM (inactive)	5.58 µM (inactive)	7.83 µM (inactive)	2.54 µM (inactive)	11.7 µM (inactive)		2.18 µM	6.1 µM (inactive)	2.17 µM (inactive)	7.76 µM (inactive)	6.55 µM (inactive)	4.41 µM (inactive)	8.61 µM (inactive)	10.8 µM (inactive)	2.72 µM (inactive)		11.3 µM (inactive)
CCOc1ccc(NCC2CC/C(=C\c3ccc(O)cc3)C2=O)cc1 (stereo not given)	15.5 µM (inactive)	18.5 µM (inactive)	3.89 µM (inactive)	19.4 µM (inactive)	19.7 µM (inactive)	4.17 µM (inactive)	16.9 µM (inactive)	18 µM (inactive)	6.9 µM	18.1 µM (inactive)	17.2 µM (inactive)	12.2 µM (inactive)	> 44.7 µM (inactive)	6.65 µM (inactive)	25.5 µM (inactive)	13.6 µM (inactive)	15.2 µM (inactive)		18.4 µM (inactive)
O=C(c1ccccc1)c1c2ccccn2c2cccc[n+]12	> 100 µM (inactive)		> 100 µM (inactive)		> 100 µM (inactive)	> 100 µM (inactive)	> 100 µM (inactive)	> 100 µM (inactive)	> 100 µM	> 100 µM (inactive)	> 100 µM (inactive)	> 100 µM (inactive)	> 100 µM (inactive)	> 100 µM (inactive)		20.1 µM (inactive)	> 100 µM (inactive)	> 100 µM (inactive)	> 100 µM (inactive)
COC(=O)N/N=C(\C)c1sc(-c2nc(C)c(/C(C)=N/NC(=O)OC)s2)nc1C	> 100 µM (inactive)	> 100 µM (inactive)	> 100 µM (inactive)	> 100 µM (inactive)	> 100 µM (inactive)	> 100 µM (inactive)	> 100 µM (inactive)		> 100 µM	> 100 µM (inactive)	> 100 µM (inactive)	> 100 µM (inactive)	> 100 µM (inactive)	> 100 µM (inactive)	> 100 µM (inactive)	> 100 µM (inactive)	> 100 µM (inactive)	> 100 µM (inactive)	
COc1cccc(-n2c3nc(=O)n(C)c(=O)c-3nc3ccccc32)c1	22.1 µM (inactive)	13.7 µM (inactive)	24.2 µM (inactive)	49.8 µM (inactive)	4.06 µM (inactive)	16.3 µM (inactive)	14.9 µM (inactive)		13.4 µM	11.7 µM (inactive)	12.3 µM (inactive)	27.1 µM (inactive)	> 100 µM (inactive)	24.3 µM (inactive)	22 µM (inactive)	3.5 µM (inactive)	26 µM (inactive)	19.6 µM (inactive)	
